The term pIC50 denotes the negative decadic logarithm of the IC50, by convention in mol/L. Read a high pIC50 as a low IC50.

SMILES strings stand for the structures. A value given as a limit tells only on which side of the number the result lay.

Targets include GSTM1 (UniProt P09488); LIMK2 (UniProt P53671); MAPK12 (UniProt P53778); PAK2 (UniProt Q13177); RPS6KA4 (UniProt O75676); STK33 (UniProt Q9BYT3); STK35 (UniProt Q8TDR2); UniProt O96017; UniProt Q14289; UniProt Q9NWV4.
Holding throughout (assay): pIC50, competition of probe 3 labelling in live cells
What all share (conditions): cell material: Jurkat cells

The next assay deals with T1, CDKL5 (UniProt O76039).
T1 sequence (whole entry): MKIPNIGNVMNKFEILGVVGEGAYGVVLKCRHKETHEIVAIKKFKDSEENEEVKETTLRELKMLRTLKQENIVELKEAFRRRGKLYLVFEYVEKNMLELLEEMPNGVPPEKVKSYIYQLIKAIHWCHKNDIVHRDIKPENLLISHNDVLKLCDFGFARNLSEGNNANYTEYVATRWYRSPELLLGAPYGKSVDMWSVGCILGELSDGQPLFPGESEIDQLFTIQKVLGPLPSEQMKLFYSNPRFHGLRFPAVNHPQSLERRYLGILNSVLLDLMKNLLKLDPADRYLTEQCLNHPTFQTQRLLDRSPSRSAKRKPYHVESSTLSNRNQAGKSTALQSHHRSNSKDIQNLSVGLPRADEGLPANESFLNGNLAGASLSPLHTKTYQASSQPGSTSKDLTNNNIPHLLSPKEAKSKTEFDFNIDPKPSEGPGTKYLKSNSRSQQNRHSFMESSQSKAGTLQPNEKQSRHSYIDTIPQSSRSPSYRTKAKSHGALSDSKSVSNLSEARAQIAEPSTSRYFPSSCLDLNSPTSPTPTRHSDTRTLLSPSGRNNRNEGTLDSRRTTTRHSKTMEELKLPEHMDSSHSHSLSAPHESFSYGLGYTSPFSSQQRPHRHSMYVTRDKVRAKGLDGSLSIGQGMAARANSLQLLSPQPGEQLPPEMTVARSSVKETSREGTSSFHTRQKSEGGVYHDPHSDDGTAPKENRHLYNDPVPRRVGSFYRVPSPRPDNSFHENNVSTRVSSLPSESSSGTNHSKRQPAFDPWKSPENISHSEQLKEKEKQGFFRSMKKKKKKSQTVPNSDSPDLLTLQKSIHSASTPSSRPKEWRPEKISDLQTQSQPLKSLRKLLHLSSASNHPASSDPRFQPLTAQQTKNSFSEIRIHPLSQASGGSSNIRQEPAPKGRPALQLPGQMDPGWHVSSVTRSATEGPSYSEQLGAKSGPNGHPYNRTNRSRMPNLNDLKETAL

The target in another assay is T2, IRAK4 (UniProt Q9NWZ3).
T2 sequence (whole entry): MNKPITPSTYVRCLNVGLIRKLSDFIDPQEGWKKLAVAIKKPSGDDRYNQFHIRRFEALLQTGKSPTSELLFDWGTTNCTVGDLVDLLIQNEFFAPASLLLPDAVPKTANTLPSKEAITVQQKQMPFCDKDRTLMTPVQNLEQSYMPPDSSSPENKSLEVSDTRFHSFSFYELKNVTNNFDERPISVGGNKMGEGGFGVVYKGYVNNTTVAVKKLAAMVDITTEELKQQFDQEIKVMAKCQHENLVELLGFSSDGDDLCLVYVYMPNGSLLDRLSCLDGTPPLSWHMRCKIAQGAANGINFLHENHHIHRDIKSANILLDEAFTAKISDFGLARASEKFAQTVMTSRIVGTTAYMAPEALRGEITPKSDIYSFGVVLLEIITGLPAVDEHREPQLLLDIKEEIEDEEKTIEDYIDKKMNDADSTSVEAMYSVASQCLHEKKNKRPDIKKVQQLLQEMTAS

For a further assay, the target named is T3, ITK (UniProt Q08881).
T3 sequence (whole entry): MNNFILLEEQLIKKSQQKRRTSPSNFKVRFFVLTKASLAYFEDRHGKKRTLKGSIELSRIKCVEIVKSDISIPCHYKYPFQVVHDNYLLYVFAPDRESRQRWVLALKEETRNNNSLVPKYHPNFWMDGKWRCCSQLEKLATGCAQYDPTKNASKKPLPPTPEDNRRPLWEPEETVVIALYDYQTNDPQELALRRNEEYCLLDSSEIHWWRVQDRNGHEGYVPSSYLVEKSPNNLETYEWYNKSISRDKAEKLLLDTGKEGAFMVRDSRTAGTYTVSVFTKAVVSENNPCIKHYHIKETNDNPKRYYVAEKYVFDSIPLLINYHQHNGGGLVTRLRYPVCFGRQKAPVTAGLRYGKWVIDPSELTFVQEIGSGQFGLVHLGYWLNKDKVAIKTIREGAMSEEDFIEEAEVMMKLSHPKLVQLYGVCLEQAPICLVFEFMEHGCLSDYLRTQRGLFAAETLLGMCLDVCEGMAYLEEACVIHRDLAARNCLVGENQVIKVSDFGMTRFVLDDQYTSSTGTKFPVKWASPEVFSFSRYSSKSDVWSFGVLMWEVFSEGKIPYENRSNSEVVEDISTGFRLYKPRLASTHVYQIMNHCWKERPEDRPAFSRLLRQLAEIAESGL

Chain of UniProt O96017 (O96017 whole entry): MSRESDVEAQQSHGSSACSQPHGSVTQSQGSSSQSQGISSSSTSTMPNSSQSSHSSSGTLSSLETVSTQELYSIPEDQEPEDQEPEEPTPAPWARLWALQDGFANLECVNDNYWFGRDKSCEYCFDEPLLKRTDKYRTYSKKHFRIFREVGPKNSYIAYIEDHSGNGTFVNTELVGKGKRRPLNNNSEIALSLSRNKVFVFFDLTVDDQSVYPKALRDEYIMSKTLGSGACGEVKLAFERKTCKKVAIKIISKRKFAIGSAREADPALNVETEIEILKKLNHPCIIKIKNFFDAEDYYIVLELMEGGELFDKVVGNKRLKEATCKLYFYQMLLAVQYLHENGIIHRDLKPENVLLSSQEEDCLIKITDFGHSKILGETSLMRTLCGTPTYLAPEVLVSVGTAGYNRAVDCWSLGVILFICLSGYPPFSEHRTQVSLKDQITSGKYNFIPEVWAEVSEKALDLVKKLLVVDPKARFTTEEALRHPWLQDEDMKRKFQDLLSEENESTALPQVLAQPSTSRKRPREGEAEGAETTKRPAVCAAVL
Chain of MAPK12 (P53778 whole entry): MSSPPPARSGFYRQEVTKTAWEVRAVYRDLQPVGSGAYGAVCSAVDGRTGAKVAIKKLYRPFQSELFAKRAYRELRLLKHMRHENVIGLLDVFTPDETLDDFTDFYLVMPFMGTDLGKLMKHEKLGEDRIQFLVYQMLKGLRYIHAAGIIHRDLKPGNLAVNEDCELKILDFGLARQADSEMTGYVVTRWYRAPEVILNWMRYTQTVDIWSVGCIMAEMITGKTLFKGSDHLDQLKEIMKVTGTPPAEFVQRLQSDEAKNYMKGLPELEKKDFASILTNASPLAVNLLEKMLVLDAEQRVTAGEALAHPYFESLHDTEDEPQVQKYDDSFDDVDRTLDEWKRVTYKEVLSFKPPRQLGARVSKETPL
Chain of LIMK2 (P53671 whole entry, looked up): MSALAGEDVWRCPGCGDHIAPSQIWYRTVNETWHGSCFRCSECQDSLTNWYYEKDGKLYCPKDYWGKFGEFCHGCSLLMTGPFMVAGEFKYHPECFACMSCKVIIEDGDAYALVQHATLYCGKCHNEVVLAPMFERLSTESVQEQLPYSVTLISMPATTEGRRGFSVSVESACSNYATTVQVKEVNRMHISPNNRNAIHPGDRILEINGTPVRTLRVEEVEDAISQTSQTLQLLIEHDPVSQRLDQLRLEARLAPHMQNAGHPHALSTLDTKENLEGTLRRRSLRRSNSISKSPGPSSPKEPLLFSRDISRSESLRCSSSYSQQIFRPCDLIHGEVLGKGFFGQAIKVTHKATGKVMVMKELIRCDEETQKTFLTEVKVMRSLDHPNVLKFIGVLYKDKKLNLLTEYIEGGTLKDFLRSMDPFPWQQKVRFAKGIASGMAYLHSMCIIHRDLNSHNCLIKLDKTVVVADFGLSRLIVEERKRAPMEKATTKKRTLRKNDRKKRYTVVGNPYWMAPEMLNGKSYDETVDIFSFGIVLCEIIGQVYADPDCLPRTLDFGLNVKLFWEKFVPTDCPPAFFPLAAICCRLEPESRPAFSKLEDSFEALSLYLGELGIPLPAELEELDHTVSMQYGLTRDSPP
Chain of RPS6KA4 (O75676 whole entry, looked up): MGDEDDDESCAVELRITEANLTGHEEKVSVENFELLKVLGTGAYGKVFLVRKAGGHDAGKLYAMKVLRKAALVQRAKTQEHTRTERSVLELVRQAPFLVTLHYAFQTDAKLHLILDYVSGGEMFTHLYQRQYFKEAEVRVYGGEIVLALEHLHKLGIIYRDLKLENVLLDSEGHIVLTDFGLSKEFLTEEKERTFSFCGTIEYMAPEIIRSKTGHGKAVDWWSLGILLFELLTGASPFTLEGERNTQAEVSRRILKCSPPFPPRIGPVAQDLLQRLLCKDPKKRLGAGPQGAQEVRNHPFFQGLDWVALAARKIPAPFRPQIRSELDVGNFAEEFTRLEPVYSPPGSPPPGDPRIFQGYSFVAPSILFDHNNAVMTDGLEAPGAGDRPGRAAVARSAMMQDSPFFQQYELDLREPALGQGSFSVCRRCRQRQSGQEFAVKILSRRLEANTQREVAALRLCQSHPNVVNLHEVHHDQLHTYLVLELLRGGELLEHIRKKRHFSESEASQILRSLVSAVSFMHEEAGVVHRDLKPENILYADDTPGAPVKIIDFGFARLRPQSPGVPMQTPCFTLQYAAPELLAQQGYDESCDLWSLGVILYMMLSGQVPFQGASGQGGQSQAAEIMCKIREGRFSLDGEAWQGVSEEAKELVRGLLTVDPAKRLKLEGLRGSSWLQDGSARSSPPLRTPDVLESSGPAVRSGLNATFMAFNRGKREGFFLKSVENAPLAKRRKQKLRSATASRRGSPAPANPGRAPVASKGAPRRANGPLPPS
Chain of GSTM1 (P09488 whole entry): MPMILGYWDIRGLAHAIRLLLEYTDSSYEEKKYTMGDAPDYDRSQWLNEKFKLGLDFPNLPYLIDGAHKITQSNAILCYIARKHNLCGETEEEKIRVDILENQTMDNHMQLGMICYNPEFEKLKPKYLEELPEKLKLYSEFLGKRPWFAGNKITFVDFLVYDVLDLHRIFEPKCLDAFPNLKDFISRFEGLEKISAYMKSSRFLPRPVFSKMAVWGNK
Chain of STK35 (Q8TDR2 whole entry): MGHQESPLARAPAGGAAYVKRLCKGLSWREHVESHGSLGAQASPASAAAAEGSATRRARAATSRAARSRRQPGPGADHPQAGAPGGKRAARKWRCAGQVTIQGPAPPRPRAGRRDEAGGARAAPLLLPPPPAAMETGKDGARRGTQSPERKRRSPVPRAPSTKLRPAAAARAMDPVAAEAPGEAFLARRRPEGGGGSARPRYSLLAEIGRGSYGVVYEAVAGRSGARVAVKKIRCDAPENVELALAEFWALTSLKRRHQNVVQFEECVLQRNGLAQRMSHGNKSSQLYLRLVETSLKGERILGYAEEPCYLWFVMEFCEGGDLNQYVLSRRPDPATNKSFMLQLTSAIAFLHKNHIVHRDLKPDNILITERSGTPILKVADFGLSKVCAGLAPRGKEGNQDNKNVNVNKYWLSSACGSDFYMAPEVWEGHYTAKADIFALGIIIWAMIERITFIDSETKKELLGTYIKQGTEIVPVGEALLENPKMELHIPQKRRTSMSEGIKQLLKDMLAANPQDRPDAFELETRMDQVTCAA
Chain of UniProt Q14289 (Q14289 whole entry, looked up): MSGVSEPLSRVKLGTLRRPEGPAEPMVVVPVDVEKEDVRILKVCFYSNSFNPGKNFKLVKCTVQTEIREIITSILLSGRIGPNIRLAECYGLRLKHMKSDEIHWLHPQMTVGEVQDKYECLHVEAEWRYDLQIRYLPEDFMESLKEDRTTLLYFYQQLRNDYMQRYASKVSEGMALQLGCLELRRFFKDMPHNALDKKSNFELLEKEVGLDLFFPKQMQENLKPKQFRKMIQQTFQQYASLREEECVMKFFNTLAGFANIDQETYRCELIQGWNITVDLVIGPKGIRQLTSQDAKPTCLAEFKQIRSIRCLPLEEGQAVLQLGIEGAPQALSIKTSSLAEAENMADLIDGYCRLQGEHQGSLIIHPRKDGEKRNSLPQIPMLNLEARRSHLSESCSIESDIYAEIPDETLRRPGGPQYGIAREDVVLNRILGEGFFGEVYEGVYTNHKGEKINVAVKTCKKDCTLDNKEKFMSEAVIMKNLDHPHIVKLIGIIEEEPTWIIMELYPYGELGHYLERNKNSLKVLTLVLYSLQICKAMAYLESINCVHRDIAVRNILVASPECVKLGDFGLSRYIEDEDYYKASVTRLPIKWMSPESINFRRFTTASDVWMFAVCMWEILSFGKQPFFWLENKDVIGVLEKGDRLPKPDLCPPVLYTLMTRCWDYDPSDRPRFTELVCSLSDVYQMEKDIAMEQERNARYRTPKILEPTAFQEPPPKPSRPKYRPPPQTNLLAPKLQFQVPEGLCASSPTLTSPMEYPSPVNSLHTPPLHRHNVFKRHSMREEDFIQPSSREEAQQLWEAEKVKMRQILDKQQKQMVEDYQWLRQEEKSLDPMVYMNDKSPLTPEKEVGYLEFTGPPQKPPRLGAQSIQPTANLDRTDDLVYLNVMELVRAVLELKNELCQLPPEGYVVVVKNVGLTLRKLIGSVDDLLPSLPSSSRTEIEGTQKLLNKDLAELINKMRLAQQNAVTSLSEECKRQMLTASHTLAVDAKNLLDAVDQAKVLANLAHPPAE
Chain of PAK2 (Q13177 whole entry): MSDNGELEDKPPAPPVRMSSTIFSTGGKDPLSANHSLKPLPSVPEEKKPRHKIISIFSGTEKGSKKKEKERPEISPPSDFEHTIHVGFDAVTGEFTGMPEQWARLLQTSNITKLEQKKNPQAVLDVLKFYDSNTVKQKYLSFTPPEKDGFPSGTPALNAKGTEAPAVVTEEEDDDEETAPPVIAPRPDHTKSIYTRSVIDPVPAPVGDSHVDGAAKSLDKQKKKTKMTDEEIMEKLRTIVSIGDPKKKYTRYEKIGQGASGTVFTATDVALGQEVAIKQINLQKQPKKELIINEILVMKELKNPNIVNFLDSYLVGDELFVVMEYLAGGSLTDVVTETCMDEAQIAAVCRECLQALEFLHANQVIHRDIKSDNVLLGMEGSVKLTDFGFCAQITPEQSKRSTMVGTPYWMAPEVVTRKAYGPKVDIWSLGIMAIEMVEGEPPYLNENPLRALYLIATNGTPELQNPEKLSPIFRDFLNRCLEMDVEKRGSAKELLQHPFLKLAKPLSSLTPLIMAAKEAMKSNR
Chain of UniProt Q9NWV4 (Q9NWV4 whole entry): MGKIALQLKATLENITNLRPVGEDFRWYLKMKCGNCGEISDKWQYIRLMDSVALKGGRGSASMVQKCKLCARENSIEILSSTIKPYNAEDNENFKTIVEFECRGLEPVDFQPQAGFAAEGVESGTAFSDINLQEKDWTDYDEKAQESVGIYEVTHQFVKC

Consider `CCc1cnn2c(NCc3ccc[n+]([O-])c3)cc(N3CCCC[C@H]3CCO)nc12` [dinaciclib], for which the negative-log IC50 (pIC50) is 6.12 on CDKL5; < 4.52 at GSTM1; < 4.52 on IRAK4; < 4.52 on ITK; < 4.52 on LIMK2; < 4.52 on MAPK12. The pIC50 at PAK2, on RPS6KA4, on STK33, on STK35, on UniProt O96017 and at UniProt Q14289 was < 4.52 throughout. The negative-log IC50 (pIC50) on UniProt Q9NWV4 is < 4.52.

For the compound `CC#CC(=O)Nc1ccc2ncnc(Nc3cccc(Br)c3)c2c1` [EKI-785], the negative-log IC50 (pIC50) at CDKL5 was < 4.52; at GSTM1, < 4.52; on IRAK4, < 4.52; at ITK it was < 4.52; at LIMK2 it was < 4.52; on MAPK12, 4.64. The pIC50 was < 4.52 on PAK2; < 4.52 on RPS6KA4; < 4.52 on STK33; < 4.52 at STK35; < 4.52 at UniProt O96017; 4.62 at UniProt Q14289. For the same compound, at UniProt Q9NWV4, the pIC50 was < 4.52.

Source of the values: the supplement of paper PMC12076712.
